Test results taken from patent publication US20260286573A1, “3D PRINTING ELECTROSPINNING SYSTEMS AND METHODS” (Board of Regents, The University of Texas System, priority 2023, published 2026).

Assay: Thermogravimetric analysis (TGA), thermal stability
Format: physicochemical
Conditions: for decrease in mass, initial phase of TGA (surface-absorbed water): 10 °C/min, nitrogen
Description: Thermogravimetric Analysis (TGA). FIG. 13 provides data showing thermogravimetric analysis (TGA) of raw materials and mixtures according to some examples. In some examples, the thermal properties of the raw materials and physical mixtures may be determined through a Mettler-Toledo TGA/DSC1 analyzer (Mettler-Toledo, Schwerzenbach, Switzerland). Sample raw materials and physical mixtures may be placed in an open ceramic crucible and ramped from 35° C. to 600° C. at a rate of 10° C./min. A furnace may be purged using ultra-purified nitrogen at a flow rate of 50 mL/min.
Thermogravimetric analysis (TGA) was conducted to examine the degradation patterns and thermal stabilities of EPO, S100, CUR, RTV, and Xspin bi-fibers (FIG. 13). TGA measures the change in sample mass as a function of temperature using a thermobalance.

Row | Compound | weight loss, second phase of TGA (between 245 and 420° C.) | decrease in mass, initial phase of TGA (surface-absorbed water) | weight loss, second phase of TGA (between 20° and 250° C.) | second weight loss (TGA) (between 30° and 395° C.)
1 | COc1cc(/C=C/C(=O)CC(=O)/C=C/c2ccc(O)c(OC)c2)ccc1O [CUR, Curcumin] | 60% | no losses |  | 
2 | CC(C)c1nc(CN(C)C(=O)N[C@H](C(=O)N[C@@H](Cc2ccccc2)C[C@H](O)[C@H](Cc2ccccc2)NC(=O)OCc2cncs2)C(C)C)cs1 [RTV, Ritonavir] |  | no losses | 40% | ~ 50%
